What is called IC50 is the concentration needed to halve the response being measured. A low value points to greater potency.

Results on 16 compounds are retold here after ChEMBL document CHEMBL1145046, “Structure-activity relationships in carboxamide derivatives based on the targeted delivery of radionuclides and boron atoms by means of peripheral benzodiazepine receptor ligands” (J Med Chem, 2003).

The target of the assay is Translocator protein (Rattus norvegicus, UniProt P16257). The assay can be described thus: Inhibitory activity against specific binding of [3H]-CB 34 to peripheral benzodiazepine receptor in rat cortical membranes was evaluated. Type of assay: cell membranes, Membrane.
Sequence of Translocator protein (P16257 whole entry, looked up): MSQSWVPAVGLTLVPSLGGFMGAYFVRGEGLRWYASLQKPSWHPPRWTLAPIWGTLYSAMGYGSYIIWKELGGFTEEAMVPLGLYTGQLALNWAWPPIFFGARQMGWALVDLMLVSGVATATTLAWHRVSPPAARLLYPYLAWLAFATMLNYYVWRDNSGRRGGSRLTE

With `CN(Cc1ccccc1)C(=O)c1cc(-c2ccccc2)c2ccccc2n1`, the IC50 was 38 nM.

In turn, `Cc1c(C(=O)N(C)Cc2ccccc2)nc2ccccc2c1-c1ccccc1` came in with a half-inhibitory concentration (IC50) of 4.6 nM.

On to `Cc1c(C(=O)NCc2ccccc2)nc2ccccc2c1-c1ccccc1`, for which the IC50 came to 10300 nM.

In the case of `CN(Cc1ccccc1)C(=O)c1cc(-c2ccccc2)c2ccccc2c1`, the IC50 came out at 64 nM.

For `Cc1c(C(=O)N(Cc2ccccc2)Cc2ccccc2)nc2ccccc2c1-c1ccccc1`, the IC50 was found to be 11 nM.

Take `C#CCN(C)C(=O)c1nc2ccccc2c(-c2ccccc2)c1C`: the IC50 stood at 32 nM.

Compound `Cc1c(C(=O)N(C)Cc2ccccc2)cc2ccccc2c1-c1ccccc1` showed a concentration for half-maximal inhibition (IC50) of 9.8 nM.

Compound `O=C(NCc1ccccc1)c1cc(-c2ccccc2)c2ccccc2c1` showed an IC50 of 2700 nM.

`CCN(Cc1ccccc1)Cc1c(C(=O)N(C)Cc2ccccc2)nc2ccccc2c1-c1ccccc1` gave an IC50 of 13 nM.

Compound `Cc1c(C(=O)NCc2ccccc2)nc2ccccc2c1-c1ccccc1F` showed an IC50 of 1490 nM.

In the case of `Cc1c(C(=O)N(C)Cc2ccccc2)nc2ccccc2c1-c1ccccc1F`, the half-inhibitory concentration (IC50) came to 2.2 nM.

Consider `Cc1c(C(=O)NCc2ccccc2)cc2ccccc2c1-c1ccccc1`, for which the IC50 came to 6600 nM.

As for `CN(Cc1ccccc1)C(=O)c1nc2ccccc2c(-c2ccccc2)c1CCl`, the IC50 came out at 0.45 nM.

Take `O=C(NCc1ccccc1)c1cc(-c2ccccc2)c2ccccc2n1`: the IC50 is 11500 nM.

For the compound `CCN(CC)Cc1c(C(=O)N(C)Cc2ccccc2)nc2ccccc2c1-c1ccccc1`, the IC50 worked out at 12 nM.

As to `CN(Cc1ccccc1)C(=O)c1nc2ccccc2c(-c2ccccc2)c1CO`, the IC50 is 8.7 nM.
